Data as given in publication PMC7838199, “Color-tunable bioluminescence imaging portfolio for cell imaging” (Scientific Reports, 2021).

Assays:
[1] = test system: T1, Artificial Luciferase 16 (ALuc16); assay: bioluminescence, Lineweaver-Burk; type: biochemical, synthetic construct; conditions: 50 mM HEPES, pH 7.2; 0.1 µM luciferase
T1 construct: designed artificial luciferase; recombinant for the kinetics; cDNA in pcDNA3.1(+) for cell work
Text: bioluminescence, Lineweaver-Burk on Artificial Luciferase 16 (ALuc16)

NanoLuc = biological target: T2, NanoLuc (Oplophorus gracilirostris, UniProt Q9GV45, A31E/Q38R/Q45L/L54V/A60N/K70R/V71I/A81I/F95D/L99Q/M102K/I117V/P142E/Q151K/Y165I/N193R); assay: bioluminescence spectrum in transfected-cell lysate; type: cell-based; conditions: 50 mM HEPES, pH 7.2; MDA-MB-231 lysate
T2 construct: pcDNA3.1(+) in MDA-MB-231 cells, lysate
T2 sequence (Q9GV45 28-196 with the stated changes): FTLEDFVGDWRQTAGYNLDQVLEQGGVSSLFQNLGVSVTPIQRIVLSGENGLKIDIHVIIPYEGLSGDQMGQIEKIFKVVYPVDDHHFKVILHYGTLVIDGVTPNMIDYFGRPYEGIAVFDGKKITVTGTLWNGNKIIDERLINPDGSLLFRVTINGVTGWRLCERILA

Row | Structure (SMILES) | Km [1] | bioluminescence spectrum in transfected-cell lysate (NanoLuc)
1 | CN(C)c1ccc(/C=C/C=C/c2cn3c(=O)c(Cc4ccccc4)nc-3c(-c3ccccc3)[nH]2)cc1 [2c] | 157 µM | 
2 | CN(C)c1ccc(/C=C/C=C/C=C/c2cn3c(=O)c(Cc4ccc(O)cc4)nc-3c(Cc3ccccc3)[nH]2)cc1 [1d] | 70.6 µM | 
3 | CN(C)c1ccc(/C=C/C=C/C=C/c2cn3c(=O)c(Cc4ccccc4)nc-3c(-c3ccccc3)[nH]2)cc1 [2d] | 86.5 µM | 
4 | Oc1ccc(Cc2nc3c(Cc4ccccc4)nc(-c4ccc(O)cc4)cn3c2O)cc1 [CTZ, coelenterazine] | 38.5 µM | 
5 | CN(C)c1ccc(/C=C/c2cn3c(=O)c(Cc4ccc(O)cc4)nc-3c(Cc3ccccc3)[nH]2)cc1 [1b] | 7.9 µM | 
6 | CN(C)c1ccc(/C=C/C=C/c2cn3c(=O)c(Cc4ccc(O)cc4)nc-3c(Cc3ccccc3)[nH]2)cc1 [1c] | 26.1 µM | 
7 | O=c1c(Cc2ccccc2)nc2c(-c3ccccc3)[nH]c(-c3ccccc3)cn1-2 [3d] | 120 µM | 3d selectively emits significant BL with NanoLuc
8 | O=c1c(Cc2ccccc2)nc2c(-c3ccccc3)[nH]c(-c3ccncc3)cn1-2 [3c] | 68.3 µM | 
